Patent US11597954B2, “Bioproduction of phenethyl alcohol, aldehyde, acid, amine, and related compounds” (National University of Singapore, priority 2017, dated 2023)

What was measured:
[1] = test system: E. coli (R-PAL-PAD_E-SMO-SOI-PAR); assay: Apparent kinetics of the whole-cells (Lineweaver-Burk plot) with and without 2-PE; type: cell-based; conditions: competitive inhibition; 3 mM 2-PE, 15 minutes, 5 g cdw/L cells, 10 mM L-phenylalanine, 30° C.
Protocol: (§1) The reaction for FIG. 17b was done at 30° C. and 250 rpm in 2 ml KP buffer (100 mM, pH 8.0) containing 0.5% (w/v) glucose, 5 g cdw/L of cell suspension, 10 mM L-phenylalanine, and (•) 0 or (▴) 3 mM of 2-PE in the aqueous phase, with n-hexadecane in the organic phase.
To further investigate the product inhibition, the apparent kinetics of the whole-cells was measured and determined using Lineweaver-Burk plot. 2-PE concentration of 3 mM was used for 15 minutes in order to determine the kinetic, thus the product toxicity towards the cells could be neglected.

[2] = test system: E. coli (pRSF-PAL-PAD_pET-SMO-SOI-PAR); type: cell-based
Protocol: as §1
The product inhibition was investigated by adding different concentration of 2-PE to the cell suspension (10 g cdw/L) of E. coli (pRSF-PAL-PAD_pET-SMO-SOI-PAR) in KP buffer (100 mM, pH 8.0) containing 0.5% glucose in aqueous phase with n-hexadecane as the organic phase, followed by the incubation at 30° C. and 250 rpm for 3 h.
Biotransformation was done in aqueous phase with KP buffer (100 mM, pH 8.0) containing cell suspension (10 g cdw/l), 0.5% glucose, and 50 mM L-phenylalanine as initial substrate while n-hexadecane as the organic phase (250 rpm, 2 h, 30° C.)

[3] = Partition coefficient in aqueous-organic biphasic system; type: physicochemical; conditions: for Partition coefficient K value: phase ratio 1:1
Protocol: FIGS. 18a and 18b show (FIG. 18a) partition coefficient of 2-PE in aqueous-organic biphasic system. Partition coefficient measured at a phase ratio of 1:1. KP buffer (100 mM, pH 8.0) was utilized as the aqueous buffer. All data were obtained from the mean values of triplicate with standard deviations through HPLC analysis. K value for L-phenylalanine was observed as ˜0 in all the respective organic solvents mentioned and (FIG. 18b) screening of 7 different organic solvent for the one-pot production of 2-PE from L-phenylalanine with the KP buffer (100 mM, pH 8.0) containing 0.5% glucose and 50 mM L-phenylalanine.
In-situ product removal technique via extraction have been conducted to remove the obtained 2-PE from the aqueous phase and make its concentration below the inhibitory level. We investigated different type of organic solvents and ionic liquids to perform the extractive biotransformation for 2-PE production via styrene-derived pathway from L-phenylalanine, starting from the analysis of their partition coefficients in the biphasic system. Product and substrate coefficient partitions in organic and aqueous phase were determined by adding different concentration of 2-PE and L-phenylalanine, respectively, into KP buffer (100 mM, pH 8.0) together with the respective organic solvents. Reaction mixtures were incubated for 1 h (280 rpm, 30° C.).

[4] = test system: cells; conditions: literature; cited from earlier work

Row | Partition coefficient K value ([3]; all the respective organic solvents vs KP buffer (100 mM, pH 8.0)) | Compound | Ki [1] | 2-PE concentration in the aqueous phase that started to inhibit the biotransformation ([2]; 3 h pretreatment, then 50 mM L-phenylalanine, 2 h, 30° C.) | Toxicity of 2-PE to the cells ([2]; cells 10 g cdw/L incubated with 2-PE 3 h, 30° C., KP buffer pH 8.0 / n-hexadecane) | Biotransformation activity of cells pretreated with 2-PE ([2]; pretreated with 90 mM 2-PE) | Partition coefficient K value ([3]; most of the organic solvents used vs KP buffer (100 mM, pH 8.0)) | Partition coefficient ([3]; n-hexadecane vs KP buffer (100 mM, pH 8.0), compared with the other organic solvents) | Concentration of 2-PE that will inhibit the cells [4]
1 | – | OCCc1ccccc1 [2-PE, 2-Phenylethanol] | 4.8 mM | above 30 mM | toxic | almost no activity | > 1 | much lower | 2-3 gr/L
2 | ~0 | N[C@@H](Cc1ccccc1)C(=O)O [L-phenylalanine] | – | – | – | – | – | – | –
